Series [1] can be described thus: Cytotoxicity (MEM Elution) of organic antimicrobial valve material. In kind it is cell-based.
Series [2] is described as follows: Acute Oral Toxicity (7 day observation in the mouse). Format: in vivo.

Consider `CCCCOC(=O)c1ccc(O)cc1` [Butyl Paraben, butyl p-hydroxy Benzoate], for which the “Cytotoxicity (MEM Elution) on the device with valve material” value in series [1] is on record as “Nontoxic”. The “Acute Oral Toxicity (7 day observation in the mouse)” value in series [2] is reported as “Nontoxic”.

In the case of `Oc1cc(Cl)ccc1Oc1ccc(Cl)cc1Cl` [Triclosan, 2,4,4′-trichloro-2′-hydroxydiphenyl ether], the “Cytotoxicity (MEM Elution) on the device with valve material” value in series [1] is “Nontoxic”. The “Cytotoxicity (MEM Elution) on the valve material alone” value in series [1] (valve material alone) is on record as “Toxic”. For the same compound, the “Acute Oral Toxicity (7 day observation in the mouse)” value in series [2] is recorded as “Nontoxic”.

For the origin of these results see US7520897B2, “Medical devices having antimicrobial properties” (Helix Medical, LLC, priority 2001, dated 2009).
